Laboratory results as given in article PMC12751141, “Disrupting α-Synuclein–ClpP interaction restores mitochondrial function and attenuates neuropathology in Parkinson’s disease models” (Molecular Neurodegeneration, 2025).

Tests used:
[1] = system: A53T-αSyn PD patient iPSC-derived DA neurons; assay: Immunofluorescence / fractionation western blot in A53T-αSyn iPSC-derived (DA) neurons; type: cell-based, human; conditions: 1 µM, five days
From the text: PD iPS cells lines (αSyn A53T, NN0004337, donor) and its isogenic corrected control line (NN0004344) were obtained from RUCDR Infinite Biologics. The iPS cells were differentiated into dopaminergic neuron-enriched neuronal culture with the protocol described previously. Briefly, iPS cell colonies were disassociated with accutase (Invitrogen), plated onto 6-well plates pre-coated with 2.5% Matrigel (BD Biosciences) and allowed to reach 80% confluence in mTeSR medium (Stem Cell Technology). For the first 10 days, cells were treated with SB431542 (10 µM; Tocris Bioscience) and Noggin (100 ng/ml) in Neural Media (NM) with FGF2 ([…]) and EGF ([…]). NM media contained: Neurobasal and DMEM/F12 (1:1), B-27 Supplement Minus Vitamin A (50×, Invitrogen), N2 Supplement (100X, Invitrogen), GlutaMAX (Invitrogen, 100×), 100 units/ml penicillin and 100 µg/ml streptomycin (Fisher); for the next 4 days, cells were treated with human recombinant Sonic hedgehog (SHH, 200 ng/ml) in neuronal differentiation medium. Neuronal differentiation medium contained Neurobasal and DMEM/F12 (1:3), B27, N2, GlutaMax and PS. In the following 3 days, cells were switched to BDNF (20 ng/ml), ascorbic acid (200 µM, Sigma-Alderich), SHH (200 ng/ml), and FGF8b (100 ng/ml) in neuronal differentiation medium. Thereafter, cells were treated with BDNF, ascorbic acid, GDNF (10 ng/ml), TGF-b (1 ng/ml), and cAMP ([…], Sigma-Aldrich). All growth factors were purchased from Pepro Tech (Rocky Hill, NJ, USA). After 20 days of induction, neurons were treated daily with TAT or CS2 peptides at 1µM and were fixed for immunostaining at 26 days of induction. The imaging was observed by confocal microscope (Fluoview FV3000, Olympus).
Cells were grown on coverslips, fixed with 4% paraformaldehyde for 20 min at room temperature, permeabilized with 0.1% Triton X-100 in PBS, and blocked with 2% normal goat serum. The cells were incubated with the indicated primary antibodies overnight at 4℃. After washing with PBS, the cells were incubated with Alexa Fluor 488/568 or 405/568 secondary antibody (1:500; Thermo Fisher Scientific) for 2 h at room temperature. The nuclei were counterstained with DAPI (1:10000; Sigma-Aldrich). Images of the staining were acquired using a Fluoview FV3000 confocal microscope (Olympus).
Fig. 6 CS2 treatment is protective in DA neurons derived from PD patient iPSCs. (A) Representative images of MitoTracker staining and ClpP-αSyn PLA in A53T αSyn or isogenic control (ISO) iPSCs-derived neurons (scale bar = 30 μm). (B) Representative images of ClpP-αSyn PLA in A53T αSyn or ISO iPSCs-derived neurons, which were treated with TAT or CS2 peptide (scale bar = 30 μm). […] (C) Representative blots of co-immunoprecipitation assay assessing ClpP-αSyn in A53T αSyn or ISO iPSCs-derived neurons, which were treated with TAT or CS2 peptide. […] (D) Representative images of ClpP staining in […] positive (TH^+) iPSCs-derived DA neurons treated with TAT or CS2 peptide (scale bar = 30 μm). […] (E) Representative images of pS129-αSyn (pS129) staining in TH^+ iPSCs-derived DA neurons treated with TAT or CS2 peptide (scale bar = 30 μm). […] (F) Representative images of PSD95, Synapsin1 (SYN1) and MAP2 staining in iPSCs-derived neurons treated with TAT or CS2 peptide (scale bar = 30 μm).
(C) Detergent soluble and insoluble fractions were extracted from iPSC-derived neurons and subjected for western blot analyses. Shown are the representative blots of 3 independent experiments.

[2] = system: mThy1-hSNCA mice (midbrain); assay: Midbrain western blot / co-immunoprecipitation in mThy1-hSNCA mice; type: in vivo, mouse
Protocol: Tissues were homogenized and incubated on ice for 30 min in total lysis buffer (50 mM Tris–HCl, pH 7.5, 150 mM NaCl, 1% Triton X-100, and protease inhibitor). Tissues were then spun at 12,000 rpm for 10 min at 4 °C; the resulting supernatant was triton-soluble fraction. The pellet was further suspended in total lysis buffer with 1% SDS, sonicated and incubated at 100 °C for 3 min, and followed by 20-s vortex. After two more repeats of 100 °C incubation and vortex, the solution was spun at 12,000 rpm for 10 min at 4 °C; the resulting supernatant was triton-insoluble fraction.
Protein concentrations were measured using the Bradford assay. Proteins (30 µg) were then resuspended in Laemmni buffer, loaded on sodium dodecyl sulfate-polyacrylamide gel electrophoresis gels, and transferred to nitrocellulose membranes. The membranes were probed with the indicated antibodies and visualized by electrochemiluminescence.
C57BL/6 N-Tg (Thy1-SNCA)15Mjff/J (JAX: 017682) breeders (C57Bl/6NJ genetic background) were purchased from Jackson Laboratories. The mice were mated, bred, and genotyped in the animal facility of Case Western Reserve University. All mice were maintained at a 12-hour light/dark cycle (on 6 am, off 6 pm). All randomization and peptide treatments in mThy1-hSNCA mice were prepared by an experimenter not associated with the behavioral and neuropathology analysis. Only male mice were used in the study. mThy1-hSNCA transgenic mice and their age-matched WT littermates were implanted with a 28-day subcutaneous osmotic pump (Alzet, Cupertino CA, Model 2004) containing either TAT control peptide or CS2 peptide, which delivered the peptides at indicated rate (1 or 3 or 10 mg/kg/day). The pump was replaced once every four weeks. All mice were sacrificed at age of 10-month for neuropathology assessment.
Cells or tissues were lysed in total lysis buffer (50mM Tris-HCl, pH 7.5, 150mM NaCl, 1% Triton X-100, and protease inhibitor). Total protein lysates (800 µg) were incubated with the indicated antibodies overnight at 4 °C followed by the addition of protein A/G beads (sc-2003, Santa Cruz) for 2 h at 4 °C. Various recombinant αSyn and Clpp (500 ng) were incubated in in vitro interaction buffer (20mM Tris-HCl pH 7.5, 100mM KCl, 2mM MgCl2 and 0.1% Triton-X100) for 30 min at room temperature, and then incubated with indicated antibodies overnight at 4 °C followed by the addition of protein A/G beads for 2 h at 4 °C. The beads with immuno-precipitates were pulled down at 4000 g and washed four times with total lysis buffer/in vitro interaction buffer in the presence of 0.1% Triton X-100 and were analyzed by western blot analysis.

[3] = A53T-αSyn iPSC neurons, n = 6–7
[4] = 3 and 10 mg/kg/day s.c., 8 weeks, n = 3 mice/group

SMILES: CC(C)[C@H](NC(=O)CNC(=O)CNC(=O)CCCCCNC(=O)[C@H](CCCNC(=N)N)NC(=O)[C@H](CCCNC(=N)N)NC(=O)[C@H](CCCNC(=N)N)NC(=O)[C@H](CCC(N)=O)NC(=O)[C@H](CCCNC(=N)N)NC(=O)[C@H](CCCNC(=N)N)NC(=O)[C@H](CCCCN)NC(=O)[C@H](CCCCN)NC(=O)[C@H](CCCNC(=N)N)NC(=O)CNC(=O)[C@@H](N)Cc1ccc(O)cc1)C(=O)N[C@H](C(=O)N[C@H](C(=O)N[C@@H](C)C(=O)O)[C@@H](C)O)C(C)C [CS2, TAT-C6-GGVVTA]
- insoluble αSyn accumulation, iPSC neurons ([1]; 3 independent experiments): reduced the expression of pS129-αSyn and the accumulation of insoluble αSyn
- pS129-αSyn expression, iPSC DA neurons ([1]; n = 5–7): reduced the expression of pS129-αSyn
- ClpP protein level in TH+ DA neurons ([1]; n = 6): significantly restored ClpP protein levels
- PSD95 density [1, 3]: restored the density of both PSD95 and Synapsin1
- Synapsin1 density [1, 3]: restored the density of both PSD95 and Synapsin1
- ClpP–αSyn interaction in midbrain ([2]; 3 mg/kg/day s.c., anti-ClpP IP, n = 3 mice/group): abolish the interaction between ClpP and αSyn
- other mitochondrial matrix proteins in midbrain ([2]; 3 mg/kg/day s.c., western blot of LonP, ClpX, n = 3–5 mice/group): without affecting other mitochondrial matrix proteins
- ClpP expression in midbrain [2, 4]: restored ClpP expression in the midbrain
- detergent-insoluble αSyn in midbrain [2, 4]: reduced levels of soluble pS129-αSyn and detergent-insoluble αSyn
- soluble pS129-αSyn in midbrain [2, 4]: reduced levels of soluble pS129-αSyn
- ClpP–αSyn interaction, 3 vs 10 mg/kg/day ([2]; s.c., comparison with 10 mg/kg/day): without disparity from 10 mg/kg/day
